Experimental data reported in ChEMBL document CHEMBL1201862, “PubChem BioAssay data set” (2004).
Active and inactive are the calls of the source.

Experiments:
Beta-galactosidase = Beta-galactosidase (Escherichia coli, UniProt Q8VNN2); assay: PubChem AID 485352; format: functional
[1] = molecular target: T1, Type-1 angiotensin II receptor (Homo sapiens, UniProt P30556); assay: antagonism of angiotensin II type 1 receptor – cell-based, uHTS hits, selectivity assay for APJ receptor antagonist project, dose response (AID 463214); format: functional;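 further: antagonist potency against angiotensin II stimulated AT1 response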
T1 sequence (P30556 whole entry): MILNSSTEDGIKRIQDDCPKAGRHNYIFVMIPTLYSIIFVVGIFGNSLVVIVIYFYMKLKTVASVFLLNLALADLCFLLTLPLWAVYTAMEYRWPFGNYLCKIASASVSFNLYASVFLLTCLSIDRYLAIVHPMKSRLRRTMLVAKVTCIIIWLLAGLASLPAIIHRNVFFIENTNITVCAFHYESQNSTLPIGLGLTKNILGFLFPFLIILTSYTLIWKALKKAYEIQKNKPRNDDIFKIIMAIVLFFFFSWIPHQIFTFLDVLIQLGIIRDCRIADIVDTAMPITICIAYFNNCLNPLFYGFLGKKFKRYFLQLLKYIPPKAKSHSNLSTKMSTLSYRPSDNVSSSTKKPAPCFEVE

[2] = Luminescence Cell-Based Dose Response HTS to Identify Activators of Luciferase Translation or Activity in H4 […] Cells. [Related pubchem assays: 1829 (Project Summary), 1814 (Primary HTS)]; format: functional
H4 = assay: Luminescence Cell-Based Dose Response HTS to Identify Activators of 5'UTR Stem-Loop Driven Prion Protein mRNA Translation in H4 Neuroglioblastoma Cells. [Related pubchem assays: 1829 (Project Summary), 1814 (Primary HTS)]; format: functional; conditions: Homo sapiens
Coagulation factor XII = molecular target: T2, Coagulation factor XII (Homo sapiens, UniProt P00748); format: functional;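 further: activated factor XIIa alpha cleaving a fluorogenic AMC peptide substrate; inhibitor potency from loss of enzyme activity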
T2 sequence (P00748 whole entry): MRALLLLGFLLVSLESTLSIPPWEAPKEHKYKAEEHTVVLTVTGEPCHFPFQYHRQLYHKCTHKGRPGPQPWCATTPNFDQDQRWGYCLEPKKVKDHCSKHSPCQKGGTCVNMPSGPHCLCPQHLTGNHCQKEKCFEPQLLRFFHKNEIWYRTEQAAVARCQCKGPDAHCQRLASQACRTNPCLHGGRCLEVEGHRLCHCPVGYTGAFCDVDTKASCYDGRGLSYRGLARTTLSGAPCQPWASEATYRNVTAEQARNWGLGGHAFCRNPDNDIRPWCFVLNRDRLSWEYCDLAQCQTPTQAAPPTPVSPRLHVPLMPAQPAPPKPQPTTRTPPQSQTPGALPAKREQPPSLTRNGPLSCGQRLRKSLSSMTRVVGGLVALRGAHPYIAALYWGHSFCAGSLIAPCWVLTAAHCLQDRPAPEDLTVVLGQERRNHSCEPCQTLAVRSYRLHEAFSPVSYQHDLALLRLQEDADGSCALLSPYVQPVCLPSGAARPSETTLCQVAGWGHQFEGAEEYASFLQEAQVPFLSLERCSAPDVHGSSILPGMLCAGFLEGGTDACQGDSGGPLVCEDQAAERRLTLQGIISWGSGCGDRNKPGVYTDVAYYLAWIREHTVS

[3] = Luminescence Cell-Based Dose Confirmation HTS to Identify Activators of 5'UTR Stem-Loop Driven Alpha-Synuclein mRNA Translation in H4 Neuroglioblastoma Cells. [Related pubchem assays: 1829 (Project Summary), 1814 (Primary HTS)]; format: functional
[4] = molecular target: T3, Calpain-2 catalytic subunit (Sus scrofa, UniProt P43367); assay: m-calpain protease blockers, concentration series – biochemical, fluorogenic peptide substrate, dose response (AID 1420); format: functional
T3 sequence (P43367 whole entry): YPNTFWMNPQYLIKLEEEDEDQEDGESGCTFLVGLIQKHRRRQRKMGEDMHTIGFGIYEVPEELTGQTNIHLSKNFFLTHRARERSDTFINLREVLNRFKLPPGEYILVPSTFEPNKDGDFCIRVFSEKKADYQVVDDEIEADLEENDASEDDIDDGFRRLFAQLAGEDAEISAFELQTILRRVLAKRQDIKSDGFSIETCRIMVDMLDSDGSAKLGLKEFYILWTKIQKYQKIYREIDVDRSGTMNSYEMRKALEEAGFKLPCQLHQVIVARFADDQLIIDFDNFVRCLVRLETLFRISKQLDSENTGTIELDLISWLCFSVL

H9c2 = assay: cells; format: functional, cell-based; conditions: Rattus norvegicus, H9c2, Myocardium;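 further: confirmatory concentration-response retest of ultra-high-throughput screening hits for modulation of myocardial damage; cell death induced by hydrogen peroxide oxidative stress; compound pretreatment for 60 min then peroxide exposure for 2 h; potency is for protecting the cells against peroxide damage rather than for killing them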
[5] = Luminescence Cell-Based Dose Response HTS to Identify Inhibitors of 5'UTR Stem-Loop Driven Prion Protein mRNA Translation in H4 Neuroglioblastoma Cells. [Related pubchem assays: 1827 (Project Summary), 1813 (Primary HTS)]; format: functional
[6] = luciferase reporter signal suppression in cells – H4 neuroglioma cells, luminescence, dose response (AID 1990); format: functional, cell-based
Nonstructural protein 1 = Nonstructural protein 1 (Influenza A virus, UniProt Q194T2); format: functional, Influenza A virus (A/California/07/2009(H1N1))
[7] = alpha-synuclein stem-loop luciferase translation blockers – H4 neuroglioma cells, luminescence, confirmation (AID 1988); format: functional, cell-based
[8] = molecular target: T4, Ubiquitin-conjugating enzyme E2 N (Homo sapiens, UniProt P61088); format: functional;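 further: Dose-response confirmation in a TR-FRET assay detecting UBC13-driven polyubiquitin chain formation, inhibition measured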
T4 sequence (P61088 whole entry): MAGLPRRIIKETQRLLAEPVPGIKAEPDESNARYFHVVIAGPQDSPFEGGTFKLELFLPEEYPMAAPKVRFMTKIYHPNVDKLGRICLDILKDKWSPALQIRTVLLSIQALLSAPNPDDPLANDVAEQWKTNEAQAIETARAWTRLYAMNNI

[9] = NIH-3T3 fibroblast cytotoxicity, dose response, cytotoxicity control, cell-based, fluorescence, Alamar Blue, secondary assay (AID 2327); format: functional;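 further: NIH-3T3 mouse fibroblasts cultured with fluconazole at 8 µg/mL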
[10] = THP-1 cell cytotoxicity, dose response, cytotoxicity control for non-replicating M. tuberculosis project (AID 489025); format: functional
[11] = fluconazole-exposed Candida albicans growth modulators – fluorescence, retest, confirmation (AID 2467); format: functional, cell-based
[12] = molecular target: T5, Heat shock factor protein 1 (Mus musculus, UniProt P38532); assay: decrease of HSF1-responsive luciferase luminescence – cell-based, NIH3T3, dose retest, confirmation (AID 2382); format: functional;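 further: NIH3T3 fibroblasts with HSF1-driven luciferase reporter stressed by proteasome inhibitor MG132; luminescence from HSF1-driven luciferase expression after 8 hours of MG132 stress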
T5 sequence (P38532 whole entry): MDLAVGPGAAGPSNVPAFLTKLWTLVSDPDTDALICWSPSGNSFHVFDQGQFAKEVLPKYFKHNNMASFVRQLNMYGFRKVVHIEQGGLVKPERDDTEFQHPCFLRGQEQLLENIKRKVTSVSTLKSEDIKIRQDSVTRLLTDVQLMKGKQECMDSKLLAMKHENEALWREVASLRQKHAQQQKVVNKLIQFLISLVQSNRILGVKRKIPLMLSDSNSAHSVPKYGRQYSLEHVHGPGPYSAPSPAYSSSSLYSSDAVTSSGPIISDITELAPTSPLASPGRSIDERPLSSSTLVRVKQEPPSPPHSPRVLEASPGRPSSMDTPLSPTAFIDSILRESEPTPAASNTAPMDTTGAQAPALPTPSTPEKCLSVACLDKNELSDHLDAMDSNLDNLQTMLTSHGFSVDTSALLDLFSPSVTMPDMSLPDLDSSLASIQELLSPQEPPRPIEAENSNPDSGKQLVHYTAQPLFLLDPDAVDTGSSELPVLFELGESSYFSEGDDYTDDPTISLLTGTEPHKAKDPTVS

Fatty acid synthase [13] = molecular target: T6, Fatty acid synthase (Homo sapiens, UniProt P49327); assay: inhibition of human FAS-TE enzyme activity – biochemical, endpoint fluorescence intensity, uHTS hits, dose response (AID 624327); format: functional;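 further: fluorescence from hydrolysis of an O-methyl fluorescein acyl ester substrate by the enzyme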
Streptococcus = assay: GAS UMAA2166 growth inhibition – luminescence, BacTiterGlo, counter-screen for streptokinase expression inhibitor project, dose response (AID 1915); format: functional, organism-based;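 further: potency for reduction of bacterial viability or growth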
[14] = system: Streptococcus sp. 'group A'; assay: Streptococcus pyogenes SK(-)GAS viability under kanamycin – luminescence, BacTiterGlo, confirmation, counter-screen for streptokinase expression inhibitor project, dose response (AID 1900); format: functional, organism-based
Fatty acid synthase [15] = molecular target: T6, Fatty acid synthase; assay: inhibition of human FAS-TE enzyme activity – biochemical, kinetic fluorescence intensity, dose response (AID 624326); format: functional;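 further: rate of fluorescence rise from hydrolysis of a fluorogenic O-methyl fluorescein ester substrate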
[16] = P. falciparum Dd2 growth inhibitors, dose response, SYBR Green, cherry-picked samples (AID 1159567); format: functional, cell-based

Nonstructural protein 1, sequence (Q194T2 whole entry): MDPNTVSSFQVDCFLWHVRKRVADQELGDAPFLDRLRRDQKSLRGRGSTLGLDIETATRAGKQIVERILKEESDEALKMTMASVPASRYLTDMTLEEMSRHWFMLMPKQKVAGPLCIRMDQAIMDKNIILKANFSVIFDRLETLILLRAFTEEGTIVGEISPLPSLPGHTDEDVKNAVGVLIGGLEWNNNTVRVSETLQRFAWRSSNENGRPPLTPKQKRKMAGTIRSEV
Beta-galactosidase, sequence (Q8VNN2 whole entry): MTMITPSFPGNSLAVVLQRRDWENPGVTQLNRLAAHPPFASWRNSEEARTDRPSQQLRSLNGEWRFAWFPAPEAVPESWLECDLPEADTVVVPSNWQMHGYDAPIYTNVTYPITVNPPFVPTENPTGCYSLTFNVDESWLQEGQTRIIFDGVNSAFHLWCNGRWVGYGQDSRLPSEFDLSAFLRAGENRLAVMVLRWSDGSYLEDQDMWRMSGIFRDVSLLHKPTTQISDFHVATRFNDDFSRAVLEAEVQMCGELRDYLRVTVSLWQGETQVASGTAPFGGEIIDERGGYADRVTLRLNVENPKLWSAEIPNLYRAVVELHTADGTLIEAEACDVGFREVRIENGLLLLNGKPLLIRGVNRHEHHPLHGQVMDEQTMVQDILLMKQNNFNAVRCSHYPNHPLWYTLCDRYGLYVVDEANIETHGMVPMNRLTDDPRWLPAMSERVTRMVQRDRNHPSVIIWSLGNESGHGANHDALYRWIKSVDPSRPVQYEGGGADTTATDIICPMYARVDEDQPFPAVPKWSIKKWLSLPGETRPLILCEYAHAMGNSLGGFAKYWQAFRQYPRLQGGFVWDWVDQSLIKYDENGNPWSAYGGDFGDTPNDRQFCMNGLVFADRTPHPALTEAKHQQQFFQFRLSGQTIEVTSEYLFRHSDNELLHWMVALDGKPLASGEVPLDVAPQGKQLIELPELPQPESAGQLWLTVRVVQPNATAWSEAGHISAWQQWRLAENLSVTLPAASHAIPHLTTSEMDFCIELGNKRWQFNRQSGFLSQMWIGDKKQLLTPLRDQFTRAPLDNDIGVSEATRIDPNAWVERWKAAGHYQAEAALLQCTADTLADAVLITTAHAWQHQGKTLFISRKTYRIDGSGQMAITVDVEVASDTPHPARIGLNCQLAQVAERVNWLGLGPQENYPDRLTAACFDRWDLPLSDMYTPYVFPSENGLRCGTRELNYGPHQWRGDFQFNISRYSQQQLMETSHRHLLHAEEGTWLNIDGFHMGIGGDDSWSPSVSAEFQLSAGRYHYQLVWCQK
T6 sequence (P49327 whole entry): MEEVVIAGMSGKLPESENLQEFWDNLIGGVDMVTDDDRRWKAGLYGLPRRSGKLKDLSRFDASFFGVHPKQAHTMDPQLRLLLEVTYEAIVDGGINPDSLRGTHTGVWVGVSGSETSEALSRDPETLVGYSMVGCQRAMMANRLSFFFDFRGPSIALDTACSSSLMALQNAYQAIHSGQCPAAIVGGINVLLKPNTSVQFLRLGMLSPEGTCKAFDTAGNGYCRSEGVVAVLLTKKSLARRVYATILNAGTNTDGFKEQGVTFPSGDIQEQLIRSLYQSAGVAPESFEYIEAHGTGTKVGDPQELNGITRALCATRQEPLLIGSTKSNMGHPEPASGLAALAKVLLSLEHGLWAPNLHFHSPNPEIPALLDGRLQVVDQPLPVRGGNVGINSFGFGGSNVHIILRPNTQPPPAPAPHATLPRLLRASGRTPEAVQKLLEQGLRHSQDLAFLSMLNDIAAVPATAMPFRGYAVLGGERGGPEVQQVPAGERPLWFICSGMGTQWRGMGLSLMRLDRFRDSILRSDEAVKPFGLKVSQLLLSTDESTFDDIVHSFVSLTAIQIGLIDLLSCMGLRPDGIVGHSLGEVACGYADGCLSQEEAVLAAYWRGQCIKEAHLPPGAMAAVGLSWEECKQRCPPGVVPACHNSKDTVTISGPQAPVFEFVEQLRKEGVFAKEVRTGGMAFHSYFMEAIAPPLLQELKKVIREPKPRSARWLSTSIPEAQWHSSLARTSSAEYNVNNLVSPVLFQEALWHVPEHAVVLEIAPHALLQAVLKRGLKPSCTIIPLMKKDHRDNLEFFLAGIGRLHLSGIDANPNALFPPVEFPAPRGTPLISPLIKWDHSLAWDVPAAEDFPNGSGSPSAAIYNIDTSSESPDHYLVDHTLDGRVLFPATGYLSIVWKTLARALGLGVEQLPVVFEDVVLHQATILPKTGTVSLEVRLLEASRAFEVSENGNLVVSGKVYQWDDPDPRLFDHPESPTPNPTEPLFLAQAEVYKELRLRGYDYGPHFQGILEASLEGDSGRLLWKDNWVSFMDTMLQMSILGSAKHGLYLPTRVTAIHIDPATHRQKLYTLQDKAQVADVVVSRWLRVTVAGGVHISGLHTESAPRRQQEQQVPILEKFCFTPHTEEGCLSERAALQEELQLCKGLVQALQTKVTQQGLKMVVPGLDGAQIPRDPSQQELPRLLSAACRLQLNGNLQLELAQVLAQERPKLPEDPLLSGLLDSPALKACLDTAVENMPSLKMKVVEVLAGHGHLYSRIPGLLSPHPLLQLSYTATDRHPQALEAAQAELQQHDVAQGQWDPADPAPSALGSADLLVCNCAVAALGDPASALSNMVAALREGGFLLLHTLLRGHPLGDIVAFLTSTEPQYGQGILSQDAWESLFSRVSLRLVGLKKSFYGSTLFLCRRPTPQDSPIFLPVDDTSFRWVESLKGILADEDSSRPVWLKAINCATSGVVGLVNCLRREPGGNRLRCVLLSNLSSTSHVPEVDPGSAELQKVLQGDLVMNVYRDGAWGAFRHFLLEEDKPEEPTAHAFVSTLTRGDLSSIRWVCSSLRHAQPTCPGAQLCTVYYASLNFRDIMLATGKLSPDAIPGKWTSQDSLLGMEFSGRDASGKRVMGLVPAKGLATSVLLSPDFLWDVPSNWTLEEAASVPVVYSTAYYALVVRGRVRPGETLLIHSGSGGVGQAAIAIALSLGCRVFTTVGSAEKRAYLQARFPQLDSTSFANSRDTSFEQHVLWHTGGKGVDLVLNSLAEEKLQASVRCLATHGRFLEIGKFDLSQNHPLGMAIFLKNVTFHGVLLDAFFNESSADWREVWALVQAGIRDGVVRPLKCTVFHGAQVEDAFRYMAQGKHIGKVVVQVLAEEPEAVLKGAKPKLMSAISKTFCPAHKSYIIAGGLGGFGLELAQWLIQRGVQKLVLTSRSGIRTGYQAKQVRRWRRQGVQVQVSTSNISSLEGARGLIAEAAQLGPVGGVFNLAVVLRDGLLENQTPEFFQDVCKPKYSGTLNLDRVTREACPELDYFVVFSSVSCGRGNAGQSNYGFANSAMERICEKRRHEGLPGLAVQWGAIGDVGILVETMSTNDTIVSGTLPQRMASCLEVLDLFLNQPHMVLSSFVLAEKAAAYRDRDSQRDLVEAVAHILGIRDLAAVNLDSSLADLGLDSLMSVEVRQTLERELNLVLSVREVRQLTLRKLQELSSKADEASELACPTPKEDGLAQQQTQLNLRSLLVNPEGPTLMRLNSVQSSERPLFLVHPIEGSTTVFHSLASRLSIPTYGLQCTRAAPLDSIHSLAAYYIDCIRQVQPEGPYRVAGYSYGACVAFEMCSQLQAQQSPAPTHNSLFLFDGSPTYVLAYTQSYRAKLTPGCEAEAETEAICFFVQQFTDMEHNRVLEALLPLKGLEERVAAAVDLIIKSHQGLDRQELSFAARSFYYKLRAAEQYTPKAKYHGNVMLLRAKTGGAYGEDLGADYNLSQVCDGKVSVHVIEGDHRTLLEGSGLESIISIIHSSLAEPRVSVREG

CC(C)Oc1cccc(C(=O)NC(=S)Nc2cccnc2)c1
EC50 (Beta-galactosidase): > 40 µM (inactive) | IC50 [1]: > 40 µM (not active)

Cn1ncc(Oc2ccc([N+](=O)[O-])cc2)c(Cl)c1=O
EC50 [2]: 25.9 µM (active) | EC50 (H4): > 120 µM (not active) | IC50 (Coagulation factor XII): > 50 µM (inactive) | EC50 [3]: > 120 µM (not active)

COc1ccc(N2CCN(S(=O)(=O)c3ccc(C(=O)NC4CCCC4)cc3)CC2)cc1
IC50 (Coagulation factor XII): > 50 µM (inactive)

O=C(NC(=S)Nc1ccc(S(=O)(=O)Nc2nccs2)cc1)c1ccccc1F
IC50 (Coagulation factor XII): > 50 µM (inactive)

Cc1cc(C)c(O)c(-c2cc(C(=O)NCc3ccccc3)[nH]n2)c1
IC50 [4]: 3.02 µM (not active)

CC1=C(C(=O)OCC2CCCO2)C(c2ccc(C)o2)C2=C(O)CC(c3ccc(N(C)C)cc3)CC2=N1 (stereo not drawn)
IC50 [4]: > 50 µM (not active)

O=C(CN1C(=O)C2C3C=CC(C3)C2C1=O)Nc1nc(-c2ccccn2)cs1 (stereo not drawn)
IC50 (H9c2): 15.1 µM (active) | EC50 [5]: > 120 µM (not active) | EC50 [6]: 15.4 µM (active) | IC50 (Nonstructural protein 1): 10.5 µM (active) | EC50 [7]: 12.2 µM (active)

O=C(COC(=O)c1ccc(Br)o1)c1ccc(S(=O)(=O)N2CCCCC2)cc1
EC50 (Beta-galactosidase): > 40 µM (inactive) | IC50 [1]: 23.2 µM (not active)

CCCCCCCCCC(=O)N1c2ccccc2NC(=O)C1CC(=O)Nc1ccc(C(=O)O)cc1 (stereo not drawn)
IC50 [4]: 21.1 µM (not active)

O=C(O)CC(Cc1ccc(Cl)cc1)C(=O)Nc1ccc([N+](=O)[O-])cc1 (stereo not drawn)
IC50 [4]: > 50 µM (not active)

O=C(CSc1nnnn1-c1ccccc1)CSc1nnnn1-c1ccccc1
IC50 [4]: 7.04 µM (not active)

CCCc1nc2[nH]nc(N)c2c2c1CCC2
IC50 (Coagulation factor XII): > 50 µM (inactive)

CCC(C)(C)NC(=O)C(c1ccc(C)o1)N(Cc1ccc2c(c1)OCO2)C(=O)c1snc(C(N)=O)c1N (stereo not drawn)
IC50 [8]: > 20 µM (inactive)

O=C(OCc1nnc(-c2ccccc2)o1)c1ccc2c(c1)OCO2
IC50 [4]: 15.2 µM (not active)

c1cnc2c(c1)ccc1cccnc12
IC50 (Nonstructural protein 1): 1.03 µM (active) | EC50 [9]: 6.76 µM (inconclusive)

O=C(NNC(=O)C12CC3CC(CC(C3)C1)C2)c1cnccn1
CC50 [10]: 39.8 µM (active) | EC50 [11]: > 38 µM (not active) | EC50 [9]: > 160 µM (inactive)

CCOC(=O)C1=NNC(C(=O)c2ccc(Cl)cc2)C1c1ccccc1 (stereo not drawn)
EC50 (Beta-galactosidase): > 40 µM (inactive) | IC50 [1]: 39.9 µM (not active)

O=C(CCN1C(=O)C2C3CC(C(Br)C3Br)C2C1=O)OCC(=O)c1cccc([N+](=O)[O-])c1 (stereo not drawn)
EC50 (Beta-galactosidase): > 40 µM (inactive) | IC50 [1]: 28.4 µM (not active)

COc1ccc(C2=NN(C(=O)c3ccc(Cl)c([N+](=O)[O-])c3)C(c3ccccc3)C2)cc1 (stereo not drawn)
IC50 [4]: 3.26 µM (not active)

COc1ccc2sc(-c3ccccc3OC)c(C#Cc3cncn3C)c2c1
IC50 [8]: > 20 µM (inactive)

COc1cccc(/C=N/n2c(N)c(S(=O)(=O)c3cccs3)c3nc4ccccc4nc32)c1OC
IC50 (Coagulation factor XII): > 50 µM (inactive)

Cc1ncc(CO)c(/C=N/NC(=S)Nc2ccc(F)cc2)c1O
IC50 (Nonstructural protein 1): 2.84 µM (active)

COc1ccc(O)c(/C=N/NC(=O)c2cc(O)nc3ccccc23)c1
IC50 (Coagulation factor XII): > 50 µM (inactive)

O=C(Cn1nc2ccccc2n1)N/N=C/c1cc([N+](=O)[O-])ccc1O
EC50 [12]: 0.691 µM (active) | IC50 (Fatty acid synthase [13]): 3.76 µM (active) | EC50 (Streptococcus): 0.55 µM (active) | EC50 [14]: 0.419 µM (active) | IC50 (Nonstructural protein 1): 5.08 µM (active) | IC50 (Fatty acid synthase [15]): 5.14 µM (active)

O=C(c1ccccn1)N1CC(=O)N2[C@H](C1)[C@@H](c1ccc(C#CCc3ccccc3)cc1)[C@@H]2CO
AC50 [16]: 9.01 µM (active)

CCC(=O)N1CC2(C1)CN(Cc1ccccc1Cl)[C@@H](CO)c1[nH]c3cc(OC)ccc3c12
AC50 [16]: 6.32 µM (active)

C[C@@H]1CN([C@@H](C)CO)C(=O)c2cc(NC(=O)Nc3ccc(C(F)(F)F)cc3)ccc2O[C@H]1CN(C)C(=O)Nc1cccc2ccccc12
AC50 [16]: 5.06 µM (active)

C[C@@H]1CN([C@H](C)CO)C(=O)c2cccc(NS(=O)(=O)c3ccccc3)c2O[C@H]1CN(C)Cc1ccc(Oc2ccccc2)cc1
AC50 [16]: 6.14 µM (active)

CC1CCN(CCNC(=O)c2ccc3c(=O)n(Cc4ccc(Cl)cc4)c(=S)[nH]c3c2)CC1
IC50 [8]: > 20 µM (inactive)
